Assay results reported in patent US9428452B2, “Compounds” (Glaxo Group Limited, priority 2012, dated 2016).
Marks after values point to notes of the source that are not given here.

What was measured:
[1] = target: T1, Human RORγ Ligand Binding Domain (RORγ-LBD) (Homo sapiens, UniProt P51449); experiment: Dual Fluorescence Energy Transfer (FRET) assay: co-activator SRC1(2) peptide interaction with RORγ-LBD; format: biochemical; conditions: RORγ-LBD / SRC1(2) peptide, read-out: mean pIC50 (converted)
T1 construct: His6 with thrombin site) (N); made in house; host or cells: E. coli BL21(DE3), modified pET21a vector
T1 sequence (P51449 263-518): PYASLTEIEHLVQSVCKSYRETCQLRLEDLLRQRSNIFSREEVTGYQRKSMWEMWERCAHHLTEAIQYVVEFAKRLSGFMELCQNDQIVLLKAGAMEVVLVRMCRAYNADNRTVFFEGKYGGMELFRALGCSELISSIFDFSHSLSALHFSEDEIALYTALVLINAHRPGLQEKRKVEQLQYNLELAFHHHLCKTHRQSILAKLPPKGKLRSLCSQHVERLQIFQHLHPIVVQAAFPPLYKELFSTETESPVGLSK
From the text: Dual Fluorescence Energy Transfer (FRET) Assay
This assay is based on the knowledge that nuclear receptors interact with cofactors (transcription factors) in a ligand dependent manner. RORγ is a typical nuclear receptor in that it has an AF2 domain in the ligand binding domain (LBD) which interacts with co-activators.
This assay measures ligand-mediated interaction of the co-activator peptide with the purified bacterial-expressed RORγ ligand binding domain (RORγ-LBD) to indirectly assess ligand binding. RORγ has a basal level of interaction with the co-activator SRC1(2) in the absence of ligand, thus, it is possible to find ligands that inhibit or enhance the RORγ/SRC1(2) interaction.
Human RORγ Ligand Binding Domain (RORγ-LBD) was expressed in E. coli strain BL21(DE3) as an amino-terminal polyhistidine tagged fusion protein. DNA encoding this recombinant protein was sub-cloned into a modified pET21a expression vector (Novagen).
Approximately 50 g E. coli cell pellet was resuspended in 300 mL of lysis buffer (30 mM imidazole pH 7.0 and 150 mM NaCl). Cells were lysed by sonication and cell debris was removed by centrifugation for 30 minutes at 20,000 g at 4° C. […] The clarified lysate was loaded onto a column (XK-26) packed with ProBond Nickel Chelating resin (InVitrogen), pre-equilibrated with 30 mM imidazole pH 7.0 and 150 mM NaCl. After washing to baseline absorbance with the equilibration buffer, the column was developed with a gradient from 30 to 500 mM imidazole pH 7.0. Column fractions containing the RORγ-LBD protein were pooled and concentrated to a volume of 5 mLs. The concentrated protein was loaded onto a Superdex 200 column pre-equilibrated with 20 mM Tris-Cl pH 7.2 and 200 mM NaCl. The fractions containing the desired RORγ-LBD protein were pooled together.
Purified RORγ-LBD was buffer exchanged by exhaustive dialysis [3 changes of at least 20 volumes (>8000×)] against PBS [100 mM NaPhosphate, pH 8 and 150 mM NaCl]. […] The modified RORγ-LBD was dialyzed against 2 buffer changes—TBS pH 8.0 containing 5 mM DTT, 2 mM EDTA and 2% sucrose—each at least 20 times of the volume. The modified protein was distributed into aliquots, frozen on dry ice and stored at −80° C. The biotinylated RORγ-LBD was subjected to mass spectrometric analysis to reveal the extent of modification by the biotinylation reagent.
Biotinylated SRC1(2) solution was prepared by adding an appropriate amount of biotinylated SRC1(2) from the 100 uM stock solution to a buffer containing 10 mM of freshly added DTT from solid to give a final concentration of 40 nM. An appropriate amount of Europium labeled Streptavidin was then added to the biotinylated SRC1(2) solution in a tube to give a final concentration of 10 nM. The tube was inverted gently and incubated for 15 minutes at room temperature. Twenty-fold excess biotin from the 10 mM stock solution was added and the tube was inverted gently and incubated for 10 minutes at room temperature.
Biotinylated RORγ-LBD solution was prepared by adding an appropriate amount of biotinylated RORγ-LBD from the stock solution to a buffer containing 10 mM of freshly added DTT from solid to give a final concentration of 40 nM. An appropriate amount of APC labeled Streptavidin was then added to the biotinylated RORγ-LBD solution in a tube to give a final concentration of 20 nM. The tube was inverted gently and incubated for 15 minutes at room temperature. Twenty-fold excess biotin from the 10 mM stock solution was then added and the tube was inverted gently and incubated for 10 minutes at room temperature.
The reaction mixtures were incubated for 5 minutes. […] The plates were incubated for 1 hour and then read on ViewLux in Lance mode for EU/APC.

[2] = tested on: IL-17A secreted from antiCD3/CD28 stimulated Peripheral Blood Mononuclear cells (PBMC); experiment: Peripheral Blood Mononucleocyte Cell Assay (PBMC Assay - IL-17); format: cell-based; conditions: Homo sapiens, 48 h, IL-17A release, read-out: mean pIC50 (converted)
Method: Peripheral Blood Mononucleocvte Cell Assay (PBMC Assay—IL-17) […]
This assay is designed to measure levels of IL-17A secreted from antiCD3/CD28 stimulated frozen Peripheral Blood Mononuclear cells (PBMC) isolated from human blood with the aim of identifying inhibitors of IL-17A release.
2. The compounds for screening are dispensed into a master plate at 10 mM top concentration which are serially diluted 1:3 across 11 points in DMSO, then 500 nL is transferred into a 384-well flat-bottomed Greiner plate to which 50 uL of cell suspension is added: for the single shot screening the highest concentration of compound is 10^−5M; for 11 point full curve dose response studies the highest concentration is 10^−4 M.
As a low control, DMSO (as supplied, for example, by VWR) (final concentration 1%) in column 6 (16 points).
As a high control, 5-(4-fluorophenyl)-2-ureidothiophene-3-carboxamide (obtainable from, for example, Sigma) at a final concentration of 10^−4 M in DMSO should be used in column 18 (16 points).
9. Make the cell suspension at the concentration 8×10^5 cells/mL to give a final number of 40,000 cells/well.
1. Add well mixed CD3/CD28 Dynabeads (as supplied, for example, by Dynal) to achieve ratio bead:cell=2:1 (ie. a dilution of 1 in 20). Mix thoroughly.
2. Dispense the suspension into the 384 Assay Plates using Multidrop (50 uL per well). If the volume of cell suspension is large, mix the suspension after dispensing into every other plate.
3. Cover the plates with the lids and place them to the humidified incubator (37° C., 5% CO2) for 48 hours.
1. Transfer 10 uL of supernatants from assay plates to the MSD plates using Cybiwell. Ensure that all wells are covered with the solution. Tap the plate gently, if some of the wells are not covered with the supernatant.
3. Add 10 uL of MSD IL-17 detecting antibody using multidrop (1 ug/mL in D-PBS without Ca^2+ and Mg^2+ (supplied, for example, by Gibco)).
4. Cover the plates with adhesive foil and incubated with shaking for 3 hours at room temperature
7. Add 35 uL of MSD Read Buffer T×2 using multidrop.
8. Read plates on MSD MA6000 reader using the 384 well plate protocol as per manufacturer's instructions.

[3] = tested on: IL-22 mRNA expression; experiment: Ex-vivo human skin model, IL-22 mRNA expression; format: cell-based; conditions: Th17 cytokine cocktail 24 h, RT-PCR
Method: (§1) Fresh ex vivo human skin from healthy bariatric patients, that underwent abdominoplasty skin removal, was de-fatted and dermatomed at 750 μm. Dermatomed skin was incubated twice for 5-10 minutes at room temperature in PBS containing a antibiotic/antimycotic solution: Fungizone (Invitrogen #15290018), PSG (Fisher #BW17718R) and Gentamicin (Invitrogen #15750060). Skin was treated aseptically from this point on. Individual skin samples were obtained by 10 mm punch biopsy and placed in a 0.4 μm PCF membrane transwell (Millicell #PIHP01250) containing 30 μl of a 64% bovine collagen solution. After a 30 minute incubation at 37° C., which allows the collagen solution time to set, skin samples on transwells were transferred to 6-well plates (1 sample per well) and the lower chamber filled with 1 ml complete media (Cornification Media)+hydrocortisone (final concentration of 0.4 μg/ml) with or without test compounds at 10 μM (day −3) and allowed to rest overnight (16-18 h) at 37° C. Next, media was aspirated from the lower chamber, replaced with 1 ml complete media without hydrocortisone and incubated at 37° C. for 1 h. This constituted a ‘wash’ step. Following the hydrocortisone washout, media was again aspirated from the lower chamber and replaced with 1.0 ml complete media without hydrocortisone with or without GSK compounds at 10 μM (day −2). Cultures were incubated at 37° C. in a humidified chamber and media was refreshed one more day (day-1). The following day (day-0), cultures were stimulated for 24 h with a freshly made Th17 cytokine cocktail (CD3, 1 μg/ml, CD28, 2 μg/ml, IL-1b, 10 ng/ml, IL-6, 5 ng/ml, TGFb, 1 ng/ml, IL-21, 10 ng/ml, anti-IL-4, 1 μg/ml and anti-INFg, 1 μg/ml) with or without test compounds at 10 μM. Upon harvest (day +1), skin samples were minced with a razor blade and transferred to 1.5 ml RNAse-free tubes with 1 ml RNAlater solution until later analysis by RT-PCR (stored at −80 C).
(§2) Total RNA was isolated from about 30-40 mg of tissue using Qiagen's (Cat #74106) Mini RNA Isolation kit. Briefly, tissue was homogenized in the Precellys-24 machine using 300 μL of RLT buffer supplemented with 1% 2-Beta-Mercapto-Ethanol at 6300 rpm for 30 seconds for 6 cycles with a 2-minute ice break. 600 μL of water containing Proteinase K was added to the homogenate and digested at 55 C for 15 minutes. Digested tissue was spun down for 3 minutes at 10,000×g and the supernantant was used for RNA isolation using Qiagen's RNeasy mini columns according to manufacturer's protocol. 100 ng of RNA was used as template in a 20 μL PCR volume using Applied Biosciences RNA-to-CT 1 Step kit (AB Catalog #4392938) as well as the specific TaqMan probe for each gene to be quantified. Life Technologies FAM labeled Probes Catalog Numbers are as follows: ACTb=Hs01060665_g1, IL-17A=Hs00174383_m1, IL-17F=Hs00369400_m1, IL-22=Hs01574154_m1. All probes used (except for ACTb) expand an Exon. Applied Biosciences' Master Mix has a ROX dye internal control. OneStepPlus PCR machine was used for both the RT step and the 40 amplification cycles. RNA levels of gene of interest's relative expression were calculated using the Delta Delta CT formula.
(§3) First delta: Normalized to ACTb gene expression
(§4) Second delta: Normalized to sample 13 (Day 0+DMSO) for the gene of interest.

[4] = tested on: IL-17A mRNA expression; experiment: Ex-vivo human skin model, IL-17A mRNA expression; format: cell-based; conditions: Th17 cytokine cocktail 24 h, RT-PCR
Method: as §1, §2, §3, §4

[5] = tested on: IL-17F mRNA expression; experiment: Ex-vivo human skin model, IL-17F mRNA expression; format: cell-based; conditions: Th17 cytokine cocktail 24 h, RT-PCR
Method: as §1, §2, §3, §4

What does the source list for `Cc1ccc(N(CC(C)C)S(=O)(=O)c2ccc(OCC3CCOCC3)cc2)c(C)c1` [Example E12]?
IC50 [1]: ≤ 15.8 nM; IC50 [2]: < 1000 nM

With `CCc1ccc(N(CC(C)C)S(=O)(=O)c2ccc(C(O)CN3CCOCC3)c(CO)c2)cc1` (racemic) [Example E123, N-(4-ethylphenyl)-4-(1-hydroxy-2-morpholinoethyl)-3-(hydroxymethyl)-N-isobutylbenzenesulfonamide] as the compound, how does the IC50 [1] read?
Its IC50 is 31.6 nM.

What about the “Percentage of inhibition of IL-22 mRNA expression” value ([3]; Skin Donor 1, compound 10 μM) of the same compound?
The value was 63% *.

And the “Percentage of inhibition of IL-22 mRNA expression” value ([3]; Skin Donor 2, compound 10 μM)?
Its value is 57%.

What about the “Percentage of inhibition of IL-22 mRNA expression” value ([3]; Skin Donor 3, compound 10 μM) of the same compound?
Its value is 50%.

What about the “Percentage of inhibition of IL-22 mRNA expression” value ([3]; Skin Donor 4, compound 10 μM) of the same compound?
The value was 68% *.

What about the “Percentage of inhibition of IL-17A mRNA expression” value ([4]; Skin Donor 1, compound 10 μM) of the same compound?
The value was 76% *.

What about the “Percentage of inhibition of IL-17A mRNA expression” value ([4]; Skin Donor 2, compound 10 μM) of the same compound?
Its value is 92% *.

What about the “Percentage of inhibition of IL-17A mRNA expression” value ([4]; Skin Donor 3, compound 10 μM) of the same compound?
Its value is 73% *.

What about the “Percentage of inhibition of IL-17A mRNA expression” value ([4]; Skin Donor 4, compound 10 μM) of the same compound?
The value was 91% *.

And the “Percentage of inhibition of IL-17F mRNA expression” value ([5]; Skin Donor 1, compound 10 μM)?
The value was 55% *.

And the “Percentage of inhibition of IL-17F mRNA expression” value ([5]; Skin Donor 2, compound 10 μM)?
Its value is 84% *.

And the “Percentage of inhibition of IL-17F mRNA expression” value ([5]; Skin Donor 3, compound 10 μM)?
The value was 65% *.

And the “Percentage of inhibition of IL-17F mRNA expression” value ([5]; Skin Donor 4, compound 10 μM)?
The value was 87% *.

How did the IC50 [1] turn out when `Cc1ccc(N(CC(C)C)S(=O)(=O)c2ccc(OCC3CCOCC3)cc2O)c(C)c1` [Example E26, N-(2,4-dimethylphenyl)-2-hydroxy-N-isobutyl-4-((tetrahydro-2H-pyran-4-yl)methoxy)benzenesulfonamide] was run?
Its IC50 is at most 15.8 nM.

`Cc1ccc(N(CC(C)C)S(=O)(=O)c2ccc(OCC3CCOCC3)cc2C)c(C)c1` [Example E25] was tested. Which IC50 [1] did it give?
The IC50 was at most 15.8 nM.

Which IC50 [1] does the source give for `Cc1ccc(N(CC(C)C)S(=O)(=O)c2cc(F)c(OCC3CCOCC3)c(F)c2)c(C)c1` [Example E23] here?
Its IC50 is at most 15.8 nM.

With `Cc1ccc(N(CC(C)C)S(=O)(=O)c2ccc(OCC3CCOCC3)c(Cl)c2)c(C)c1` [Example E20] as the compound, how does the IC50 [1] read?
Its IC50 is at most 15.8 nM.

How did the IC50 [1] turn out when `Cc1ccc(N(CC(C)C)S(=O)(=O)c2ccc(OCC3CCOCC3)c(C3CC3)c2)c(C)c1` [Example E21, 3-cyclopropyl-N-(2,4-dimethylphenyl)-N-isobutyl-4-((tetrahydro-2H-pyran-4-yl)methoxy)benzenesulfonamide] was run?
Its IC50 is at most 15.8 nM.

And the IC50 [2]?
The IC50 was under 1000 nM.
